Test results taken from US20220041559A1, “BENZO-AND PYRIDO-PYRAZOLES AS PROTEIN KINASE INHIBITORS” (ROTTAPHARM BIOTECH S.R.L., priority 2019, published 2022).

Columns and labels:
VEGFR2 (KDR) kinase = target: T1, VEGFR2 (KDR) kinase (Homo sapiens, UniProt P35968); assay: ADP-Glo in vitro kinase assay, VEGFR2 kinase inhibition; format: biochemical; conditions: ATP 50 μM, 30 minutes at room temperature
T1 construct: purchased SignalChem
Protocol: (§1) The ADP-Glo™ Kinase Assay (Promega), monitoring ADP produced in the kinase reaction, was performed in two steps. In the first one, after the kinase reaction, the ADP-Glo™ Reagent is added to terminate the kinase reaction and deplete the remaining ATP. In the second step, the Kinase Detection Reagent is added to simultaneously convert ADP to ATP (ATPn or newly synthesized ATP) and introduce luciferase and luciferin, allowing the ATPn to be measured (luciferase/luciferin reaction). The amount of light generated correlates with the amount of ATPn (indirectly with the ADP produced in kinase reaction).
(§2) Kinase reaction was performed in 10 μl in a white 384-well plate, inhibitor solutions in DMSO/Kinase buffer (40 mM Tris-Cl, 20 mM MgCl2, 0.1 mg/ml BSA, 50 μM DTT, pH 7.5) and VEGFR2 (KDR) kinase in Kinase buffer (SignalChem, 0.5 ng/μl final concentration in assay) were pre-incubate 15 minutes at room temperature. At the kinase concentration selected, a signal-to negative control ratio >10 was calculated, according to supplier indication. In samples representing the Total enzymatic activity or the negative control (no enzyme), inhibitor solution was replaced by diluents (1 DMSO in kinase buffer, final concentration) or ultra-pure water, respectively.
(§3) The range of inhibitor concentrations was from 10^−11 M up to 3×10^−6 M (final concentration in assay) and each experimental point was performed in duplicate.
(§4) To start the reaction, a substrate/ATP mix (50 μM final concentration, near to ATP Km value) was added to each sample and after 30 minutes incubation at room temperature, ADP-Glo™ Reagent and Kinase Detection Reagent, incubated in sequence according to the respective incubation time and supplier indication, allowed to stop and develop the kinase reaction. The luminescence was measured with a plate-reading luminometer (Envision 2104 Multilabel reader, PerkinElmer). The percentage of inhibition was calculated towards the Total enzymatic activity and the corresponding curves were analyzed by non linear curve fitting (GraphPad software, version 7 for Windows), allowing to calculate the IC50 value±standard error of the value

EGFR = EGFR (Homo sapiens, UniProt P00533); assay: ADP-Glo in vitro kinase assay, EGFR kinase inhibition; format: biochemical; set-up: purchased SignalChem
Protocol: as §1
as §2, with “EGFR” for “VEGFR2 (KDR)”, “2.5” for “0.5”, “selected” for “selected,”, “activity (no inhibitor)” for “activity”
as §3
as §4, with “mix (ATP 10” for “mix (50”, “the estimate.” for “the value”

U87MG xenograft = assay: Survival time of intracranial U87MG glioblastoma bearing mice; format: in vivo, athymic Nude mice; conditions: 50 mg/kg orally once a day, day 9 until day 19
Protocol: Human U87MG cancer cell line were implanted in athymic Nude mice by intracranial injection. Mice, divided into two groups, were orally dosed for 10 days either with vehicle or with Compound 5 (50 mg/kg, once a day) from the day 9 until day 19 after injection of tumour cells. The animal survival was tracked over time, mice were monitored for mortality and sacrificed at appearance of signs of distress, neurological deficits, seizure, or significant body weight loss (e.g. >20%).

VEGFR = target: T2, VEGFR (Homo sapiens, UniProt P35968); assay: Inhibition of VEGF-induced VEGFR (Y1175)-phosphorylation (cell-based assay, HUVEC-C); conditions: VEGF 50 ng/ml, Western blot
T2 construct: endogenous in cells; host or cells: HUVEC-C
Protocol: HUVEC-C cells (Human Umbilical Vein Endothelial Cells from ATCC) were plated at 6×10^4 cells/well in 24 w microplates and grown adherent in medium F12K+0.1 mg/ml Heparin+0.05 mg/ml ECGS+10% FBS at 37° C. with 5% CO2. After 24 h, medium was removed and starvation was induced overnight in medium F12K+0.1 mg/ml Heparin+0.5% FBS (medium starvation). At the end of incubation, treatment of cells was performed by medium replacement and by adding fresh medium containing or not diluent or test compounds (DMSO 0.1% final concentration) diluted in medium starvation. After 1 hour, VEGF stimuli (diluted in medium starvation, 50 ng/ml final concentration) was added to each sample, with the exception of basal sample; plate was then incubated for 5 min at 37° C. with 5% CO2. At the end of the incubation, the medium was removed and cellular lysates were obtained by adding M-PER lysis buffer containing 1× Protease/Phosphatase inhibitors cocktail. Then, lysates were transferred into Eppendorf tubes, sonicated and stored at −80° C.
Lysates were analyzed by Western blot for VEGFR phosphorylation (Tyrosine 1175) and total receptor amount determination. Densitometric analysis of sample lanes were performed by ImageQuant TL software (GE Healthcare Life Sciences). […]

Sequence of EGFR (P00533 25-1210): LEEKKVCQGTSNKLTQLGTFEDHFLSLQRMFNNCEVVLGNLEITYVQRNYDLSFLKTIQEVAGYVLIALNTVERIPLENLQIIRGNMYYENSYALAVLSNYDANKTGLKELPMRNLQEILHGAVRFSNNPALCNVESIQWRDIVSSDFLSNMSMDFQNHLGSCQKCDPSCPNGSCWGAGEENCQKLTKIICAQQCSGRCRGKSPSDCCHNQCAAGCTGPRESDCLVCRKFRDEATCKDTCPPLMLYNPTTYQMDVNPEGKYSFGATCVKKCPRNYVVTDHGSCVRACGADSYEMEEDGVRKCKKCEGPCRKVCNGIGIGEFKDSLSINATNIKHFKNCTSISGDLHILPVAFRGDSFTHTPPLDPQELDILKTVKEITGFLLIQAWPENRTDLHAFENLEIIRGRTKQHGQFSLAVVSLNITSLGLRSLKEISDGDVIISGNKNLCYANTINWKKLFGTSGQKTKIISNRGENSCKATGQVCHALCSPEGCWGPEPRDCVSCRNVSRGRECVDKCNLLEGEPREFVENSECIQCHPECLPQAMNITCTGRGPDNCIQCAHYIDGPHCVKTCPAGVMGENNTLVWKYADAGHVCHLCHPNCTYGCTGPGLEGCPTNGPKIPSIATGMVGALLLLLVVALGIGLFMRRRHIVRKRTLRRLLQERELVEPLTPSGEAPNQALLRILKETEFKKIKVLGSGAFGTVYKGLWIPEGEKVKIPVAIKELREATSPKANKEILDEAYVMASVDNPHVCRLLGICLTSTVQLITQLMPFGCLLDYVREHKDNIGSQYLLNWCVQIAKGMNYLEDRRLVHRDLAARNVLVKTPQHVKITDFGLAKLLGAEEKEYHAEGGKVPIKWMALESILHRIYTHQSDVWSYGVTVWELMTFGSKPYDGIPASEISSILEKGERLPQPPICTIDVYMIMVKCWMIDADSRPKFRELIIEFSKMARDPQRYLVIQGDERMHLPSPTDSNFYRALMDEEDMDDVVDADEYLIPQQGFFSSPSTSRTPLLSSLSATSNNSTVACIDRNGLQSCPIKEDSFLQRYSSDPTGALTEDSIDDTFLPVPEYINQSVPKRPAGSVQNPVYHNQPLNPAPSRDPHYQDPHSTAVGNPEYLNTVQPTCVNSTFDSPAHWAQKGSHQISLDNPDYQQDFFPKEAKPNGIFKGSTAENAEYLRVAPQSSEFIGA
T1 sequence (P35968 20-1356): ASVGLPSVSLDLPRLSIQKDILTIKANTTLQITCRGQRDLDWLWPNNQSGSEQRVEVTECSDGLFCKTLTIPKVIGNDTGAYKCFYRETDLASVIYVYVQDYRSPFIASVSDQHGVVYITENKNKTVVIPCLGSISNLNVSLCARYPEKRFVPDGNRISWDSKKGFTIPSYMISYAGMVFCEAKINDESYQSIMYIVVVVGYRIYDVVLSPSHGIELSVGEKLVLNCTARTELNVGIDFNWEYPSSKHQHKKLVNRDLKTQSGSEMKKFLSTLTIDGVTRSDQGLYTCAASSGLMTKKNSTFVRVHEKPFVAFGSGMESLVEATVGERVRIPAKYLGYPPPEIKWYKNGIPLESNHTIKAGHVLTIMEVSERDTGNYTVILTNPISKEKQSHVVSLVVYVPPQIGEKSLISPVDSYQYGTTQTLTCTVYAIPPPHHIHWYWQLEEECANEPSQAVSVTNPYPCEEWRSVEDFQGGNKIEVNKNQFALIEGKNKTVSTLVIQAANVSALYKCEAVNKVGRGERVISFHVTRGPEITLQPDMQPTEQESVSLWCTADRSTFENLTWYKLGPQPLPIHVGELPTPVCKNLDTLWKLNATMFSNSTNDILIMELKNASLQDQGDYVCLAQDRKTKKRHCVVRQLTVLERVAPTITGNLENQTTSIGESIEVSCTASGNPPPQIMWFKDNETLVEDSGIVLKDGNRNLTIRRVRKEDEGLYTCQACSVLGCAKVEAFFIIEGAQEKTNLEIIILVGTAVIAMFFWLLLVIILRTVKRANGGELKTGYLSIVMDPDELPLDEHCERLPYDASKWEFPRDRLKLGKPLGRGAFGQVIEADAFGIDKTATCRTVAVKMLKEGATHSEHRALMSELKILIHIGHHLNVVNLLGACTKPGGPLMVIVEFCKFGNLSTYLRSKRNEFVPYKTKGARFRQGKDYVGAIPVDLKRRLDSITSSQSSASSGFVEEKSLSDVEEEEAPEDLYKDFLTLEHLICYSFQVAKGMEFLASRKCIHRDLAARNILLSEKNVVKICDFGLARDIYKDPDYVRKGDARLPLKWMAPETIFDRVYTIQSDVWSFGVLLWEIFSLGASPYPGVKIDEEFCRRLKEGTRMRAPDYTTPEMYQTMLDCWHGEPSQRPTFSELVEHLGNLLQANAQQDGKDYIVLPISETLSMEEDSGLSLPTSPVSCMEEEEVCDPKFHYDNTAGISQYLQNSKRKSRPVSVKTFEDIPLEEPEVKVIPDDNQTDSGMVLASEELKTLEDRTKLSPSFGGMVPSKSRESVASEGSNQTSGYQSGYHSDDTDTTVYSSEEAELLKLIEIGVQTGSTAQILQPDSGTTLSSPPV
T2 sequence (P35968 20-1356): as above

CN1CCC(c2ccc(C(=O)Nc3n[nH]c4nc(Nc5ccccc5F)ccc34)cc2)CC1 [Compound 5, N-(6-((2-fluorophenyl)amino)-1H-pyrazolo[3,4-b]pyridin-3-yl)-4-(1-methylpiperidin-4-yl)benzamide]
IC50 (VEGFR2 (KDR) kinase): 0.082 µM
IC50 (EGFR; ATP 10 μM, 30 minutes at room temperature): 0.006 µM
EGFR kinase inhibition, result in words (EGFR; text summary of Table 18): more active
median survival time from tumour cell injection (U87MG xenograft): 70 days
Concentration from which maximal inhibitory activity on VEGFR-phosphorylation is shown (VEGFR): ≥ 1 µM
